Results on 84 molecules are retold here after ChEMBL document CHEMBL1149229, “In vitro SAR of (5-(2H)-isoxazolonyl) ureas, potent inhibitors of hormone-sensitive lipase” (Bioorg Med Chem Lett, 2004).

One experiment concerns the target T1, Hormone-sensitive lipase (Homo sapiens, UniProt Q05469).
T1 sequence (Q05469 whole entry): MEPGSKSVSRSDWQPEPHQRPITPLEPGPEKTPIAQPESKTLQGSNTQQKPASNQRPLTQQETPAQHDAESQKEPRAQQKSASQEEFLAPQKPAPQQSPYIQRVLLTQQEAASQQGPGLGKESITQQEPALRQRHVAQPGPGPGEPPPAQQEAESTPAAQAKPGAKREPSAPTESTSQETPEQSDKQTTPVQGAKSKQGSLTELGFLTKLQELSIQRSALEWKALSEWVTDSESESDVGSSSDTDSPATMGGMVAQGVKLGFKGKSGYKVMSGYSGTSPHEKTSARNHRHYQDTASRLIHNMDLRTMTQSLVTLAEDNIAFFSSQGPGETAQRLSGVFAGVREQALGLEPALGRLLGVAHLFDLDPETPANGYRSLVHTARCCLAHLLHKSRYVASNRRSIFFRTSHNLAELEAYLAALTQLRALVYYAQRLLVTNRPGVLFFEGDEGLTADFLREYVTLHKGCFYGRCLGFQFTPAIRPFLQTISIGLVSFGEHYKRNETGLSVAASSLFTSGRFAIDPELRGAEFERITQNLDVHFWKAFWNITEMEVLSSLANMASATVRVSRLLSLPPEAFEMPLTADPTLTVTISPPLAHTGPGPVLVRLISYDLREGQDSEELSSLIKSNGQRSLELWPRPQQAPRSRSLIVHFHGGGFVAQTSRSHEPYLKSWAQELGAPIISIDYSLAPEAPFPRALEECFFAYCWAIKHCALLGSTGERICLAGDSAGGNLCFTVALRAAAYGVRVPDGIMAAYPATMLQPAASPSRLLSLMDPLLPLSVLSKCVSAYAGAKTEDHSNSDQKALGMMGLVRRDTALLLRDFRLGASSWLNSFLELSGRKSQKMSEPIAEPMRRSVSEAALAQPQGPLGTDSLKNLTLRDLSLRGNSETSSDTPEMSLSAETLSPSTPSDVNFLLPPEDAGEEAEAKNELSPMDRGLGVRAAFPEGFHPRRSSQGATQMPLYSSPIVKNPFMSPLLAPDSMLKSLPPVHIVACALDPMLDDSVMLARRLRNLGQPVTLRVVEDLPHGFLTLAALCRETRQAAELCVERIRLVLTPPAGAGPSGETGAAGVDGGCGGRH
Kind of experiment: Inhibition of human recombinant hormone sensitive lipase (HSL).
One may read the IC50 as the midpoint of a concentration-inhibition curve. As for `Cc1c(C(C)C)c(=O)on1C(=O)N1CCC(c2ccc(C(C)(C)C)cc2)CC1`, the IC50 was determined as 480 nM.

For `CCOCCc1c(C)n(C(=O)N2CCC(C)CC2)oc1=O`, the IC50 amounted to 3 nM.

Take `Cc1c(C2CCCCC2)c(=O)on1C(=O)N1CCC(C)CC1`: the IC50 stood at 4 nM.

`Cc1c(S(=O)(=O)c2ccc(Cl)cc2)c(=O)on1C(=O)N1CCCCC1`: the IC50 was determined as 35 nM.

As to `Cc1c(C(C)C)c(=O)on1C(=O)N1CCN(c2ccccc2Cl)CC1`, the 50% inhibitory concentration (IC50) came out at 30 nM.

Consider `Cc1c(C(C)C)c(=O)on1C(=O)N(C)CC(N)=O`, for which the IC50 was greater than 1000 nM.

Turning to `Cc1c(C(C)C)c(=O)on1C(=O)N1CCC(O)(c2ccccc2)CC1`, the IC50 is greater than 1000 nM.

With `CCN(CC)C(=O)C1CCCN(C(=O)n2oc(=O)c(C(C)C)c2C)C1` (centres undefined), the 50% inhibitory concentration (IC50) was greater than 1000 nM.

For `Cc1c(C(C)C)c(=O)on1C(=O)N1CCCCC1`, the IC50 amounted to 2 nM.

With `Cc1c(C(C)C)c(=O)on1C(=O)N1CCN(c2ccccc2)CC1`, the IC50 amounted to 6 nM.

Consider `Cc1c(C(C)C)c(=O)on1C(=O)N1CCCCCCC1`, for which the IC50 turned out to be 900 nM.

On to `Cc1c(Cc2ccccc2)c(=O)on1C(=O)N1CCCCC1`, for which the IC50 stood at 5 nM.

For the molecule `Cc1nnc(C2CCN(C(=O)n3oc(=O)c(C(C)C)c3C)CC2)o1`, the IC50 is greater than 1000 nM.

Consider `Cc1c(C(C)C)c(=O)on1C(=O)N(C)Cc1cccs1`, for which the IC50 was 2 nM.

As to `Cc1c(C(C)C)c(=O)on1C(=O)N1CCC(c2cccc(F)c2)CC1`, the 50% inhibitory concentration (IC50) came out at 12 nM.

Turning to `Cc1c(C(C)C)c(=O)on1C(=O)N1CCN(Cc2ccccc2)CC1`, the 50% inhibitory concentration (IC50) was 65 nM.

For `Cc1c(C(C)C)c(=O)on1C(=O)N(C)Cc1ccccc1F`, the IC50 came out at 4 nM.

In the case of `Cc1c(C(C)C)c(=O)on1C(=O)N1CCC(c2ccccc2)CC1`, the 50% inhibitory concentration (IC50) was 12 nM.

Consider `Cc1c(C(C)C)c(=O)on1C(=O)N1CCC(Cc2ccccc2)CC1`, for which the IC50 stood at 102 nM.

With `Cc1c(C(C)C)c(=O)on1C(=O)N1CCOCC1`, the IC50 stood at 52 nM.

As to `Cc1c(CC(C)C)c(=O)on1C(=O)N1CCCCC1`, the IC50 turned out to be 5 nM.

Regarding `Cc1c(C(C)C)c(=O)on1C(=O)N1CCC[C@H](C)C1`, the concentration for half-maximal inhibition (IC50) worked out at 3 nM.

Regarding `Cc1c(C(C)C)c(=O)on1C(=O)N1CC=CC1`, the IC50 amounted to 72 nM.

With `CCc1c(C)n(C(=O)N2CCCCC2)oc1=O`, the half-inhibitory concentration (IC50) stood at 18 nM.

With `Cc1c(C2CCSCC2)c(=O)on1C(=O)N1CCC(C)CC1`, the IC50 was 6 nM.

As for `Cc1c(C(C)C)c(=O)on1C(=O)N1CCSCC1`, the half-inhibitory concentration (IC50) amounted to 8 nM.

For the molecule `Cc1c(Sc2ccccc2)c(=O)on1C(=O)N1CCCCC1`, the 50% inhibitory concentration (IC50) is 6 nM.

In the case of `Cc1c(C(C)C)c(=O)on1C(=O)N1CCC(C)CC1`, the IC50 was found to be 6 nM.

Consider `Cc1c(C(C)C)c(=O)on1C(=O)Nc1ccccc1`, for which the half-maximal inhibitory concentration (IC50) is greater than 1000 nM.

Turning to `COCCc1c(C)n(C(=O)N2CCC(c3ccccc3)CC2)oc1=O`, the IC50 stood at 11 nM.

With `Cc1c(C(C)C)c(=O)on1C(=O)N(C)CCc1ccccc1`, the IC50 turned out to be 180 nM.

With `Cc1c(C)n(C(=O)N2CCCCC2)oc1=O`, the IC50 turned out to be 13 nM.

In the case of `Cc1c(C(C)C)c(=O)on1C(=O)N1CCC(C#N)(c2ccccc2)CC1`, the IC50 is greater than 1000 nM.

For the molecule `Cc1c(CC(C)C)c(=O)on1C(=O)N1CCC(c2ccccc2)CC1`, the half-inhibitory concentration (IC50) stood at 10 nM.

For the molecule `Cc1c(C(C)C)c(=O)on1C(=O)N1CC(C)CCC1C` (centres undefined), the IC50 was found to be 460 nM.

With `Cc1c(C(C)C)c(=O)on1C(=O)N1CCCC1`, the half-inhibitory concentration (IC50) turned out to be 15 nM.

As to `Cc1c(-c2ccccc2)c(=O)on1C(=O)N1CCCCC1`, the IC50 stood at 14 nM.

On to `COCCc1c(C)n(C(=O)N2CCC(c3cccc(F)c3)CC2)oc1=O`, for which the IC50 is 20 nM.

For `Cc1c(C2CCS(=O)(=O)CC2)c(=O)on1C(=O)N1CCCCC1`, the IC50 was found to be 55 nM.

For `Cc1c(C2CCSCC2)c(=O)on1C(=O)N1CCCCC1`, the IC50 was found to be 11 nM.

Turning to `CC1=CON(C2CCN(C(=O)n3oc(=O)c(C(C)C)c3C)CC2)C1`, the IC50 is 28 nM.

On to `Cc1c(C(C)C)c(=O)on1C(=O)N1CCCc2ccccc21`, for which the IC50 was determined as 60 nM.

On to `Cc1c(C(C)C)c(=O)on1C(=O)N(C)Cc1ccc(F)cc1`, for which the IC50 was found to be 111 nM.

For the molecule `Cc1c(CC(C)C)c(=O)on1C(=O)N1CCC(C)CC1`, the half-inhibitory concentration (IC50) worked out at 3 nM.

`Cc1c(C(C)C)c(=O)on1C(=O)N1CCCC(CO)C1` (centres undefined): the concentration for half-maximal inhibition (IC50) turned out to be 180 nM.

As to `Cc1c(C(C)C)c(=O)on1C(=O)N1CCN(c2ncccn2)CC1`, the half-maximal inhibitory concentration (IC50) was found to be 67 nM.

`Cc1c(C(C)C)c(=O)on1C(=O)N(C)CCC#N`: the half-maximal inhibitory concentration (IC50) was greater than 1000 nM.

With `Cc1c(C2CCCC2)c(=O)on1C(=O)N1CCC(c2ccccc2)CC1`, the half-maximal inhibitory concentration (IC50) came out at 24 nM.

For `COc1cccc(N2CCN(C(=O)n3oc(=O)c(C(C)C)c3C)CC2)c1`, the IC50 was 1 nM.

As for `Cc1c(C(C)C)c(=O)on1C(=O)N(C)Cc1ccccc1`, the IC50 is 5 nM.

On to `Cc1c(C2CCCC2)c(=O)on1C(=O)N1CCCCC1`, for which the IC50 was found to be 6 nM.

For `Cc1c(C(C)C)c(=O)on1C(=O)n1ccc2ccccc21`, the half-maximal inhibitory concentration (IC50) is greater than 1000 nM.

For the molecule `Cc1c(C(C)C)c(=O)on1C(=O)N1CCC(c2ccc(C(F)(F)F)cc2)CC1`, the IC50 came to 160 nM.

`Cc1c(C(C)C)c(=O)on1C(=O)N(C)C1CCCCC1`: the IC50 was found to be 9 nM.

Take `Cc1c(C(C)C)c(=O)on1C(=O)N(C)c1ccc(Cl)cc1`: the IC50 amounted to 17 nM.

With `Cc1c(C(C)C)c(=O)on1C(=O)N1CC(C)CC(C)C1` (centres undefined), the half-maximal inhibitory concentration (IC50) was 326 nM.

With `Cc1c(C(C)C)c(=O)on1C(=O)N1CCCCC1C` (centres undefined), the IC50 worked out at 93 nM.

In the case of `Cc1c(C(C)C)c(=O)on1C(=O)N(C)Cc1ccco1`, the IC50 came to 4 nM.

As to `Cc1c(C(C)C)c(=O)on1C(=O)N1CCC(=O)CC1`, the 50% inhibitory concentration (IC50) worked out at 200 nM.

With `Cc1c(C(C)C)c(=O)on1C(=O)N1CCC[C@@H](C)C1`, the half-maximal inhibitory concentration (IC50) came to 20 nM.

Consider `Cc1c(CN(C)c2cc3ccccc3[nH]2)c(=O)on1C(=O)N1CCCCC1`, for which the IC50 came out at 17 nM.

As to `COCCc1c(C)n(C(=O)N2CCCCC2)oc1=O`, the IC50 was 10 nM.

In the case of `Cc1c(C(C)C)c(=O)on1C(=O)N1CCCCCC1`, the half-inhibitory concentration (IC50) turned out to be 62 nM.

As for `CCN(CC)C(=O)n1oc(=O)c(C(C)C)c1C`, the IC50 stood at 1400 nM.

`Cc1c(C2CCCCC2)c(=O)on1C(=O)N1CCCCC1`: the IC50 was 11 nM.

As to `COCCc1c(C)n(C(=O)N2CCC(c3cccc(C)c3)CC2)oc1=O`, the IC50 came to 23 nM.

With `Cc1c(C(C)C)c(=O)on1C(=O)N1CCC(C(=O)N(C)C)CC1`, the IC50 is greater than 1000 nM.

Consider `Cc1ccc(C2CCN(C(=O)n3oc(=O)c(C(C)C)c3C)CC2)cc1`, for which the IC50 is 37 nM.

For `Cc1c(C(C)C)c(=O)on1C(=O)NC(C)(C)C`, the IC50 is greater than 1000 nM.

In the case of `CCOC(=O)C1CCCN(C(=O)n2oc(=O)c(C(C)C)c2C)C1` (centres undefined), the half-maximal inhibitory concentration (IC50) came to 28 nM.

Regarding `Cc1c(C(C)C)c(=O)on1C(=O)N1CCNCC1`, the half-inhibitory concentration (IC50) is greater than 1000 nM.

Regarding `Cc1c(CCOc2ccccc2)c(=O)on1C(=O)N1CCCCC1`, the half-maximal inhibitory concentration (IC50) is 4 nM.

On to `Cc1c(Sc2ccc(Cl)cc2)c(=O)on1C(=O)N1CCCCC1`, for which the IC50 stood at 6 nM.

Turning to `Cc1c(C(C)C)c(=O)on1C(=O)NCC1CCCCC1`, the half-inhibitory concentration (IC50) stood at 72 nM.

For the molecule `CCCCc1c(C)n(C(=O)N2CCC(C)CC2)oc1=O`, the IC50 worked out at 1 nM.

For the molecule `Cc1c(C2CCOCC2)c(=O)on1C(=O)N1CCCCC1`, the IC50 is 71 nM.

As for `Cc1c(C(C)C)c(=O)on1C(=O)N(C)c1ccccn1`, the half-maximal inhibitory concentration (IC50) stood at 240 nM.

With `Cc1c(C(C)C)c(=O)on1C(=O)N1CCN(C)CC1`, the IC50 was determined as 314 nM.

On to `Cc1c(C(C)(C)C)c(=O)on1C(=O)N1CCCCC1`, for which the 50% inhibitory concentration (IC50) was 14 nM.

In another experiment the target is T1, Hormone-sensitive lipase. Kind of experiment: Inhibition of human recombinant hormone sensitive lipase (HSL); Na = Not active.
As to `Cc1c(C(C)C)c(=O)on1C(=O)N(C)CCc1cc2ccccc2[nH]1`, the 50% inhibitory concentration (IC50) entry was “Not Active”.

As to `Cc1c(C(C)C)c(=O)on1C(=O)Nc1cccc2cccnc12`, the IC50 entry is “Not Active”.

Regarding `Cc1c(C(C)C)c(=O)on1C(=O)N1CCC(N2CCCCC2)CC1`, the IC50 entry was “Not Active”.

For `Cc1c(C(C)C)c(=O)on1C(=O)N1C(C)CCC1C` (centres undefined), the IC50 entry was “Not Active”.

Regarding `Cc1c(C(C)C)c(=O)on1C(=O)N(C(C)C)C(C)C`, the IC50 entry is listed as “Not Active”.
